In US20220332701A1, “HETEROCYCLIC COMPOUNDS AS BCR-ABL INHIBITORS” (ASCENTAGE PHARMA (SUZHOU) CO., LTD., priority 2019, published 2022) one finds GI50 data, which are given here for 12 compounds.

One assay addresses BaF3(WT) (Homo sapiens, UniProt P00519). Description: WST (CCK-8) anti-proliferation assay, BaF3 WT cells. The note with it: read-out: BaF3(WT); anti-proliferative IC50, 72 h treatment, CCK-8, BaF3 WT.
Another assay concerns the target BaF3(T315I) (Homo sapiens, UniProt P00519, T315I, cells depend on it). Description: WST (CCK-8) anti-proliferation assay, BaF3 T315I cells. The note with it: read-out: BaF3(T315I); anti-proliferative IC50, 72 h treatment, CCK-8, BaF3 T315I.

Description for BaF3(WT): The anti-proliferative effect of representative Compounds of the Disclosure was determined by a water-soluble tetrazolium (WST)-based assay using Cell Counting Kit-8 (CCK-8). Cells were seeded in 96-well plates and treated with different concentrations of test articles for 72 h. Each treatment was tested in triplicates. Briefly, a series of 9 concentrations were chosen for each test article and added at 100 μl/well into a 96-well plate. Each concentration was tested in triplicates. 100 μl of diluent was added into 3-6 wells in the same plate for cell control group, and another set of 3-6 wells was used as a blank control.
In each well, 100 μl of cell suspension (containing optimal cell numbers, which creates approximately 100% confluence of cells in control wells based on by the absorbance (OD) value) was dispensed into the same 96-well plate except for the blank well. The plate was then cultured at 37° C. in an incubator in an atmosphere with 5% CO2 for 72 h. At the end of treatments, 20 μl/well of CCK-8 reagent was directly added to each wells. The plate was then incubated at 37° C. in an incubator in an atmosphere with 5% CO2 for 2-4 hour.
The cells viability was calculated using the mean OD value of triplicated wells following the equation below: (OD sample−OD blank)/(OD cell control−OD blank)×100 IC50 values were calculated with Graphpad Prism 6.0 software using nonlinear regression (curve fitting) type data analysis.

Consider `O=C(Nc1ccc(OC(F)(F)Cl)cc1)c1cc2c(c(-c3ccn[nH]3)c1)N(C1CCCCC1)CC2` [VII-3, N-(4-(chlorodifluoromethoxy)phenyl)-1-cyclohexyl-7-(1H-pyrazol-5-yl) indoline-5-carboxamide], for which the GI50 on BaF3(WT) was determined as 123 nM; on BaF3(T315I), 574 nM.

On to `O=C(Nc1ccc(OC(F)(F)Cl)cc1)c1cc2c(c(-c3cc[nH]n3)c1)C1(CCC(O)C1)C(=O)N2` (stereo not drawn) [V-5, N-(4-(chlorodifluoromethoxy)phenyl)-3-hydroxy-2′-oxo-4′-(1H-pyrazol-5-yl)spiro[cyclopentane-1,3′-indoline]-6′-carboxamide], for which the values for the GI50 on BaF3(WT) and on BaF3(T315I) were 144 nM and 335 nM, respectively.

Turning to `CN1CCCc2cc(C(=O)Nc3ccc(OC(F)(F)Cl)cc3)cc(-c3ccn[nH]3)c21` [IX-2, N-(4-(chlorodifluoromethoxy)phenyl)-1-methyl-8-(1H-pyrazol-5-yl)-1,2,3,4-tetrahydroquinoline-6-carboxamide], the figures for the GI50 at BaF3(WT) and on BaF3(T315I) were 162 nM and 332 nM, respectively.

`CC(C)N1c2c(cc(C(=O)Nc3ccc(OC(F)(F)Cl)cc3)cc2-c2cncnc2)CC1C(=O)N(C)C` (stereo not drawn) [VII-15, N5-(4-(chlorodifluoromethoxy)phenyl)-1-isopropyl-N2,N2-dimethyl-7-(pyrimidin-5-yl)indoline-2,5-dicarboxamide]: the figures for the GI50 on BaF3(WT) and on BaF3(T315I) were 19 nM and 131 nM, respectively.

In the case of `CC1(C)C(=O)N(CCO)c2cc(C(=O)Nc3ccc(OC(F)(F)Cl)cc3)cc(-c3ccn[nH]3)c21` [V-6, N-(4-(chlorodifluoromethoxy)phenyl)-1-(2-hydroxyethyl)-3,3-dimethyl-2-oxo-4-(1H-pyrazol-5-yl)indoline-6-carboxamide], the GI50 at BaF3(WT) came to 364 nM; on BaF3(T315I) it was 2860 nM.

Consider `O=C(Nc1ccc(OC(F)(F)Cl)cc1)c1cc2c(c(-c3ccn[nH]3)c1)N(C1CC1)CC2` [VII-5, N-(4-(chlorodifluoromethoxy)phenyl)-1-cyclopropyl-7-(1H-pyrazol-5-yl) indoline-5-carboxamide], for which the GI50 was 34 nM on BaF3(WT) and 295 nM on BaF3(T315I).

As for `CC(C)N1c2c(cc(C(=O)Nc3ccc(OC(F)(F)Cl)cc3)cc2-c2ccn[nH]2)CC1C(=O)N1CCOCC1` (stereo not drawn) [VII-25, N-(4-(chlorodifluoromethoxy)phenyl)-1-isopropyl-2-(morpholine-4-carbonyl)-7-(1H-pyrazol-5-yl)indoline-5-carboxamide], the figures for the GI50 on BaF3(WT) and on BaF3(T315I) were 58 nM and 243 nM, respectively.

Turning to `CC(C)N1CCc2cc(C(=O)Nc3ccc(SC(F)(F)F)cc3)cc(-c3ccn[nH]3)c21` [VII-45, 1-isopropyl-7-(1H-pyrazol-5-yl)-N-(4-((trifluoromethyl)thio)phenyl)indoline-5-carboxamide], the GI50 was 18 nM at BaF3(WT) and 474 nM on BaF3(T315I).

`CC(C)N1CCc2cc(C(=O)Nc3ccc(OC(F)(F)Cl)cc3)cc(-c3ccn[nH]3)c21` [VII-1, N-(4-(chlorodifluoromethoxy)phenyl)-1-isopropyl-7-(1H-pyrazol-5-yl)indoline-5-carboxamide]: the GI50 at BaF3(WT) came out at 26 nM; on BaF3(T315I), 91 nM.

For `CC1CN(C(C)C)c2c(-c3cncnc3)cc(C(=O)Nc3ccc(OC(F)(F)Cl)cc3)cc21` (stereo not drawn) [VII-37, N-(4-(chlorodifluoromethoxy)phenyl)-1-isopropyl-3-methyl-7-(pyrimidin-5-yl)indoline-5-carboxamide], the GI50 is 41 nM on BaF3(WT) and 395 nM on BaF3(T315I).

Take `CC(C)N1CC(CO)c2cc(C(=O)Nc3ccc(OC(F)(F)Cl)cc3)cc(-c3ccn[nH]3)c21` (stereo not drawn) [VII-43, N-(4-(chlorodifluoromethoxy)phenyl)-3-(hydroxymethyl)-1-isopropyl-7-(1H-pyrazol-5-yl)indoline-5-carboxamide]: the GI50 at BaF3(WT) came to 16 nM; on BaF3(T315I), 332 nM.

Regarding `CNCC1CN(C(C)C)c2c(-c3ccn[nH]3)cc(C(=O)Nc3ccc(OC(F)(F)Cl)cc3)cc21` (stereo not drawn) [VII-28, N-(4-(chlorodifluoromethoxy)phenyl)-1-isopropyl-3-((methylamino)methyl)-7-(1H-pyrazol-5-yl)indoline-5-carboxamide], the GI50 was determined as 132 nM at BaF3(WT) and 575 nM on BaF3(T315I).
